For one assay, the system named is S. aureus (ATCC29213). Put plainly: In vitro susceptibility, broth microdilution (MIC). The assay is classed as cell-based. The settings on record: Staphylococcus aureus. An excerpt:
Epidemic methicillin resistant S. aureus (MRSA) strain sequenced at the Sanger Centre (MRSA252, NRS71) was obtained from NARSA (Network on Antimicrobial Resistance in S. aureus). Methicillin sensitive S. aureus (ATCC 29213 and 25923), methicillin resistant S. aureus (ATCC BAA-1762), and Salmonella typhimurium (ATCC BAA-185) were obtained from ATCC, The Global Bioresource Center. Acinetobacter baumannii (ATCC 19606 and ATCC 17978), Klebsiella pneumonia (C238), vancomycin resistant Enterococci #2 (2010A) (VRE#2), MRSA (USA400, MW2) and Pseudomonas aeruginosa (PA0-1) were obtained from the laboratory of Dr B. B. Finlay at the University of British Columbia (Vancouver, Canada).
The antimicrobial activities of PK inhibitor candidates were determined using the 96-well microtiter standard 2-fold serial broth microdilution method as described by CLSI (formerly NCCLS) with the various gram-positive and gram-negative bacteria species mentioned above. Bacteria from a single colony were grown, overnight in either BHI Broth (VRE), mueller hinton broth (S. aureus 29213; MRSA USA400, A. baumannii 19606, MRSA BAA-1762) or L-broth (P. aeruginosa, S. typhimurium, K. pneumonia and A. baumannii 17978). […] Culture plates were incubated for 18-24 h at 37° C., and optical density at 600 nm (OD600) was measured using a Benchmark Plus™ microplate spectrophotometer (Bio-Rad™). The absorbance control values for the series containing CAMHB and inhibitor were subtracted as background from the corresponding infected wells. Minimal inhibitory concentration (MIC) was defined as the lowest concentration of test compound leading to complete inhibition of cell growth in relation to compound-free control wells as determined by optical density. Vancomycin, methicillin and ciprofloxicin were used as reference compounds. All assays were run in triplicate or duplicate. Experiments were replicated at least twice to verify reproducibility using the above conditions.

The target in the next assay is T1, MRSA Pyk (Staphylococcus aureus, UniProt Q6GG09).
T1 construct: made in house; host or cells: E. coli BL-21 (DE3)
As to the kind of experiment: MRSA pyruvate kinase (PK) activity, continuous LDH-coupled assay. In kind it is biochemical, methicillin resistant S. aureus (MRSA252). The source says: Genomic DNA of MRSA strain Sanger 252 extracted using DNeasy Tissue Kit™ (Qiagen™) was used as a template to generate the His-tagged MRSA PK. Human cDNA from MCF-7 breast cancer cell line (courtesy of Dr. J Wong, BC Cancer Research Center (Vancouver, Canada)) was used as a template to generate the full-length human M2 PK enzyme. The following primer sets were used creating appropriate restriction sites (NdeI and XhoI sites underlined): For cloning of MRSA PK: M27F 5′-[…]-3′ and M27R 5′-[…]-3′, for cloning of human M2 PK isoform: hM2F 5′-[…]-3′ and hM2R 5′-[…]-3′. The resulting PCR fragments for each construct were cloned into the NdeI and XhoI unique sites of the bacterial expression vector pET-28a (+) (Novagen™). […] The sequence and the correct reading frame of all constructs were verified by sequencing. Human M1, R and L PK constructs in pET-28-a(+) vectors (courtesy of Dr. L. Cantley, Harvard Medical, School (Boston, USA)) were used to generate relevant recombinant His-tagged human PK isoforms.
MRSA and human constructs in pET-28a(+) were used to express relevant recombinant PK proteins in E. coli BL-21 (DE3). The proteins were expressed and purified using Ni-NTA agarose (Qiagen™) according to the manufacturer's protocol. Briefly, cells were grown to an absorbance of 0.4-0.5 at 600 nm in 2×YT medium, then induced with 0.1 mM IPTG for 3 h at 20° C. Cells were lysed by sonication on ice (3×10-s bursts with a 30-s recovery between bursts) in lysis buffer (0.2 mg/ml lysozyme, 50 mM Tris pH 7.5, 10 mM MgCl2, 200 mM NaCl, 100 mM KCl, 10% glycerol, 10 mM imidazole, 0.5% NP-40 and 1 mM DTT containing Complete™ protease inhibitor). Cell lysates were cleared by centrifugation (18,000×g in a Beckman™ JA-20 rotor) for 20 min at 4° C. and PK isoforms were purified by batch binding to Ni-NTA resin. The resins were then packed in columns (1×2 cm) and washed with 400 column volumes lysis buffer containing 30 mM imidazole. His-tagged PK isoforms were eluted with the same buffer containing 300 mM imidazole. The proteins were dialyzed overnight at 4° C. against 2000 volumes of ice-cold 30 mM Tris pH 7.5, 25 mM KCl, 5 mM MgCl2, 10% glycerol and 1 mM DTT to remove imidazole. All purification steps were done at 4° C.; enzymes were flash-frozen and stored at −70° C. Enzymatic activity of frozen protein preparations was stable for at least 10 months and up to 5 freeze/thaw cycles. Purity and physical integrity of proteins were assessed using SDS-polyacrylamide gel electrophoresis (SDS-PAGE) followed by coomassie blue staining. Protein concentration was estimated by Bradford assay (Bio-Rad Protein Assay™) using bovine serum albumin as a standard.
Candidate MRSA PK inhibitors were assayed for their ability to inhibit enzymatic activities of MRSA and human PKs. PK activity was determined using a continuous assay coupled to lactate dehydrogenase (LDH) in which the change in absorbance at 340 nm owing to oxidation of NADH was measured using a Benchmark Plus™ microplate spectrophotometer (Bio-Rad Laboratories, Hercules, Calif.). […] Reactions were initiated by the addition of 15 nM of one of the PK enzymes. PK activity proportional to the rate of change at 340 nm was expressed as specific activity (μmol/min/mg), which is defined as the amount of PK that catalyzes the formation of one micromole of either product per minute. Inhibitors were dissolved in DMSO with the final concentration of the solvent never exceeding 1% of the assay volume. IC50 values were calculated by curve fitting on a four-parameter dose-response model with variable slope using Graphpad Prism 5.0™ (GraphPad™ Software Inc., La Jolla, Calif.). In all studies, less than 10% of total PEP was exhausted during the reaction. Reactions were performed at 30° C. for up to 5 min. All values determined represent at least two measurements, in triplicate (Tables 1-6) or duplicate unless mentioned otherwise. […]

Setting [1] is: S. aureus ATCC29213, 18-24 h, 37 C, read-out: Antimicrobial activity (MIC) S. aureus ATCC29213.

pIC50: −log10 of the molar value. Converted amounts (≈) assume the structure as drawn. Like-named read-outs stand apart in the source and are kept apart here.

In general, MIC refers to the lowest concentration that inhibits growth of the organism. The term pIC50 denotes the IC50 on a negative log10 scale, so that one unit is a factor of ten.

T1 sequence (Q6GG09 whole entry): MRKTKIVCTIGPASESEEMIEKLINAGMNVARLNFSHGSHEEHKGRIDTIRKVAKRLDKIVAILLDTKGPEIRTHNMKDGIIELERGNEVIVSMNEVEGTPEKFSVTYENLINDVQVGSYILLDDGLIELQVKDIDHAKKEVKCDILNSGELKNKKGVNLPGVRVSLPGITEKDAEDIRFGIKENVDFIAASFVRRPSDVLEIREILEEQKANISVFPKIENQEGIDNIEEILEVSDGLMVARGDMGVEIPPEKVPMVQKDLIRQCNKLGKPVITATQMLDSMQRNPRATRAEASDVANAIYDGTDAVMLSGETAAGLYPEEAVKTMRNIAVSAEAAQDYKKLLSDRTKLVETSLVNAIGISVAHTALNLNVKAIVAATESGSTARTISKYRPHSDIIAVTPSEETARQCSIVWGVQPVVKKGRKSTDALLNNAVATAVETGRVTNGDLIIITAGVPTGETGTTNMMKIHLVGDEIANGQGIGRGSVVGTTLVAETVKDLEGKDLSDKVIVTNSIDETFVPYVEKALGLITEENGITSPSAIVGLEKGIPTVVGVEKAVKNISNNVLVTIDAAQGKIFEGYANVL

For the molecule `CS(=O)(=O)OCCOc1cc2[nH]c(-c3cc4ccc(Br)cc4[nH]3)cc2cc1Cl` [Compound 198, 2-((6′-Bromo-5-chloro-1H,1′H-[2,2′-biindol]-6-yl)oxy)ethyl Methanesulfonate], the MIC with S. aureus (ATCC29213) (ATCC29213, read-out: Antimicrobial activity (MIC) S. aureus ATCC29213) was above 64 µg/mL. In addition, the negative logarithm of the IC50 (pIC50) against MRSA Pyk was above 7.00.
Turning to `O=C(c1c(/C=C/c2ccc(Cl)cc2)[nH]c2cc(Br)ccc12)N1CCNCC1` [Compound 25, (E)-(6-Bromo-2-(4-chlorostyryl)-1H-indol-3-yl)(piperazin-1-yl)methanone], the MIC in the assay on S. aureus (ATCC29213) (setting [1]) amounted to 8 µg/mL (≈ 18 µM). The pIC50 at MRSA Pyk was 6.00 to 7.00.
The like results for `CN1CCN(CCNC(=O)c2c(C(=O)Nc3ccc(Cl)cc3)[nH]c3cc(Br)ccc23)CC1` [Compound 79, 6-Bromo-N2-(4-chlorophenyl)-N3-(2-(4-methylpiperazin-1-yl)ethyl)-1 H-indole-2,3-dicarboxamide] were, in that order, above 64 µg/mL and above 7.00.
`CN(C)C(=O)c1c(CCc2ccc(Cl)cc2)[nH]c2ccccc12` [Compound 51, 2-(4-Chlorophenethyl)-N,N-dimethyl-1H-indole-3-carboxamide]: the MIC in the assay on S. aureus (ATCC29213) (setting [1]) was above 64 µg/mL. The molecule also gave a pIC50 against MRSA Pyk below 6.00.
The like results for `ON=C(c1c(CCc2ccc(Cl)cc2)[nH]c2cc(Br)ccc12)C(F)(F)F` (racemic) [Compound 46, 1-(6-Bromo-2-(4-chlorophenethyl)-1H-indol-3-yl)-2,2,2-trifluoroethanone Oxime] were, in that order, 1 µg/mL (≈ 2.24 µM) and below 6.00.
As to `O=C(CCN1CCOCC1)c1c(/C=C/c2cn3ccccc3n2)[nH]c2cc(Br)ccc12` [Compound 10, (E)-1-(6-Bromo-2-(2-(imidazo[1,2-a]pyridin-2-yl)vinyl)-1H-indol-3-yl)-3-morpholinopropan-1-one], the MIC in the assay on S. aureus (ATCC29213) (setting [1]) is above 64 µg/mL. Moreover, on MRSA Pyk, the pIC50 was 6.00 to 7.00.
The like results for `CN(C)C(=O)c1c(/C=C/c2ccc(Cl)nc2)[nH]c2cc(Br)ccc12` [Compound 36, (E)-6-bromo-2-(2-(6-chloropyridin-3-yl)vinyl)-N,N-dimethyl-1H-indole-3-carboxamide] were, in that order, above 64 µg/mL and 6.00 to 7.00.
The like results for `CC(O)(c1c(/C=C/c2ccc(Cl)cc2)[nH]c2cc(Br)ccc12)C(F)(F)F` (stereo not drawn) [Compound 18, (E)-2-(6-Bromo-2-(4-chlorostyryl)-1H-indol-3-yl)-1,1,1-trifluoropropan-2-ol] were, in that order, 1 µg/mL (≈ 2.25 µM) and above 7.00.
With `OC(c1c(CCc2ccc(Cl)cc2)[nH]c2cc(Br)ccc12)C(F)(F)F` (stereo not drawn) [Compound 17], the MIC with S. aureus (ATCC29213) (setting [1]) came out at 2 µg/mL (≈ 4.62 µM). This molecule also showed a pIC50 against MRSA Pyk of 6.00 to 7.00.
The like results for `O=C(O)C(=O)c1c(/C=C/c2ccc(Cl)cc2)[nH]c2cc(Br)ccc12` [Compound 85, (E)-2-(6-bromo-2-(4-chlorostyryl)-1H-indol-3-yl)-2-oxoacetic Acid] were, in that order, above 64 µg/mL and 6.00 to 7.00.
The like results for `CN(C)CCC(=O)c1c(/C=C/c2cn3ccccc3n2)[nH]c2cc(Br)ccc12` [Compound 9, (E)-1-(6-Bromo-2-(2-(imidazo[1,2-a]pyridin-2-yl)vinyl)-1H-indol-3-yl)-3-(dimethylamino)propan-1-one] were, in that order, 32 µg/mL (≈ 73.2 µM) and 6.00 to 7.00.
With `NC(=O)[C@@H]1CCCN1CCCCNC(=O)c1c(-c2cc3cc(Cl)ccc3[nH]2)[nH]c2cc(Br)ccc12` [Compound 116, (S)-6-Bromo-N-(4-(2-carbamoylpyrrolidin-1-yl)butyl)-5′-chloro-1H,1′H-[2,2′-biindole]-3-carboxamide], in the assay with S. aureus (ATCC29213) (setting [1]), the MIC is above 64 µg/mL. Also, on MRSA Pyk, the pIC50 is above 7.00.
Consider `N#Cc1c(/C=C/c2ccc(Cl)cc2)[nH]c2cc(Br)ccc12` [Compound 67, (E)-6-Bromo-2-(4-chlorostyryl)-1H-indole-3-carbonitrile], for which the MIC in the assay on S. aureus (ATCC29213) (setting [1]) was above 64 µg/mL. At MRSA Pyk, this molecule gave a negative-log IC50 (pIC50) below 6.00.
In turn, `CN(C)CCNC(=O)c1c(NCc2ccc(Cl)cc2)[nH]c2cc(Br)ccc12` [Compound 83, 6-bromo-2-(4-chlorobenzylamino)-N-(2-(dimethylamino)ethyl)-1H-indole-3-carboxamide] had a negative-log IC50 (pIC50) against MRSA Pyk below 6.00.
As to `CN(C)C(=O)c1c(/C=C/c2ccc(Cl)cc2)[nH]c2cc(Br)ccc12` [Compound 21, (E)-6-Bromo-2-(4-chlorostyryl)-N,N-dimethyl-1H-indole-3-carboxamide], the MIC in the assay on S. aureus (ATCC29213) (setting [1]) was above 64 µg/mL. The molecule also had a pIC50 on MRSA Pyk above 7.00.
The like results for `O=C(NCCO)c1c(/C=C/c2ccc(Cl)cc2)[nH]c2cc(Br)ccc12` [Compound 28, (E)-6-Bromo-2-(4-chlorostyryl)-N-(2-hydroxyethyl)-1H-indole-3-carboxamide] were, in that order, above 64 µg/mL and 6.00 to 7.00.
On MRSA Pyk, `O=C(NCCN1CCOCC1)c1c(/C=C/c2ccc(Cl)cc2)[nH]c2cc(Br)ccc12` [Compound 29, (E)-6-Bromo-2-(4-chlorostyryl)-N-(2-morpholinoethyl)-1H-indole-3-carboxamide] gave a negative-log IC50 (pIC50) below 6.00.
Still for that read-out and setting: in the case of `O=C(NCCCO)c1c(-c2cc3cc(Cl)ccc3[nH]2)[nH]c2cc(Br)ccc12` [Compound 133, 6-Bromo-5′-chloro-N-(3-hydroxypropyl)-1H,1′H-[2,2′-biindole]-3-carboxamide] it was above 7.00; in that of `COc1ccc(CCc2[nH]c3cc(Br)ccc3c2CCO)nc1` [Compound 71, 2-(6-Bromo-2-(2-(5-methoxypyridin-2-yl)ethyl)-1H-indol-3-yl)ethanol], below 6.00.
Still for that read-out and setting: under `CC(=O)OCC(=O)Nc1c(CCc2ccc(Cl)cc2)[nH]c2cc(Br)ccc12` [Compound 97, 2-(6-Bromo-2-(4-chlorophenethyl)-1H-indol-3-ylamino)-2-oxoethyl Acetate] stands below 6.00; under `O=C(NCc1cccnc1)c1c(/C=C/c2ccc(Cl)nc2)[nH]c2cc(Br)ccc12` [Compound 37, (E)-6-Bromo-2-(2-(6-chloropyridin-3-yl)vinyl)-N-(pyridin-3-ylmethyl)-1 H-indole-3-carboxamide], 6.00 to 7.00.

The values are drawn from patent US20180312493A1, “Antibiotic Compounds, Pharmaceutical Formulations Thereof And Methods And Uses Therefor” (Simon Fraser University, priority 2015, published 2018).
